Measurements from patent US20160346255A1, “METHODS, AGENTS AND COMPOSITIONS FOR TREATMENT OF INFLAMMATORY CONDITIONS” (Betanien Hospital, priority 2014, published 2016).
Non-standard residues stand in square brackets, D forms with d. Residues, ends and D or L forms follow the SMILES beside them. *: point of attachment. dPhe(4-NHCONH2) = NC(=O)Nc1ccc(C[C@@H](N)C(=O)O)cc1; Dihydroorotyl(S) = O=C1C[C@@H](C(=O)*)NC(=O)N1; dPhe(4-Cl) = N[C@H](Cc1ccc(Cl)cc1)C(=O)O; Phe(4-NH2) = Nc1ccc(C[C@H](N)C(=O)O)cc1; d2Nal = N[C@H](Cc1ccc2ccccc2c1)C(=O)O; Lys(iPr) = CC(C)NCCCC[C@H](N)C(=O)O; d3Pal = N[C@H](Cc1cccnc1)C(=O)O

What was measured:
[1] = test system: Patient with Multiple Sclerosis; experiment: Multiple sclerosis patient treated with degarelix (with concomitant fampridine); format: in vivo, human
Method: • person, diagnosed with multiple sclerosis (MS). Their MS was of the progressive type; characterized by a steady deterioration in function. • Fulfilled the 2010 McDonald Criteria for the diagnosis of MS (1).
• So far results of clinical trials for progressive MS have generally been disappointing. Currently, there is no FDA-approved treatment for progressive MS disease. • December 2014 received first dose of degarelix 240 mg s.c. • Received degarelix 80 mg s.c. every two weeks thereafter.
• This patient's EDSS has remained stable at 6.5, as expected over such a short time period of 6 weeks. A score of 6.5 is equivalent to only being able to walk with the aid of a walker, as in their case. This was evident at baseline and 6 weeks.
• Patient-reported outcomes are of increasing importance in trials of progressive multiple sclerosis (2). The most frequently used global patient-reported outcome in multiple sclerosis is the MSIS-29 (3). This has been correlated with clinical and imaging metrics specifically in progressive forms of the disease (4). According to a recent review (2), patient reported outcomes in trials of progressive multiple sclerosis can be used to validate MRI or clinical metrics, and increased use of patient-reported outcomes in trials of progressive multiple sclerosis will be expected to help satisfy regulators' requirements that treatments show relevant benefit for patients. • At baseline, they scored 121 on the MSIS-29. By 6 weeks, their score was reduced to 110. A clinically significant minimal difference is a score change of 8. Therefore this reduction of 11 in their score is considered clinically significant (5).
• The MSWS-12 (6) was designed as a disease-specific patient-based instrument for use in clinical trials and clinical practice, to capture the complex impact of MS on walking ability. […] One of the most important attributes of the MSWS-12 in comparison to other assessments of walking in MS patients is its responsiveness to change. […] By 6 weeks, their score was reduced to 53. This is a 12% improvement. A minimal clinically significant difference has not yet been established.
• The MFIS-5 is a modified form of the Fatigue Impact Scale (10) based on items derived from interviews with MS patients concerning how fatigue impacts their lives. This instrument provides an assessment of the effects of fatigue in terms of physical, cognitive, and psychosocial functioning. • At baseline, they scored 20 on the MFIS-5. By 6 weeks, their score was reduced to 12. This was a reduction of 40%, which is clinically significant.
• The T25FW is another common endpoint in trials. At baseline, they took 16.7 seconds to walk 25 feet, and by 6 weeks they took 15.2 seconds. This improvement in walking speed supports the patient's reported improved outcomes. […] This improvement in progressive MS is likely to also be observed in the relapsing-remitting type of MS. This is because the relapsing-remitting type gives similar signs and symptoms as the progressive type to patients over time.
• For the last 2.5 years, they had been taking stable concomitant fampridine, a potassium channel blocker, for symptomatic treatment for MS. Their MS disease activity had been increasing gradually over these 2.5 years, requiring them to use crutches, and eventually a walker. In December 2014, they started experimental treatment with degarelix. […] They describe in an interview that for the first time they could easily complete certain exercises with their under extremities that they had previously never been able to do during their physiotherapy visits. • Due to this effect, they decided to discontinue their long-term stable fampridine medication on 05.04.15. […] This improvement in progressive MS is likely to also be observed in the relapsing-remitting type of MS. This is because the relapsing-remitting type gives similar signs and symptoms as the progressive type to patients over time.

[2] = test system: Patients with Rheumatoid Arthritis; experiment: Rheumatoid arthritis patients treated with degarelix: laboratory variables; format: in vivo, human; parameters: LH: unit not given beside the values
From the text: [table] […] Examples of Patients with Continued RA Improvement Over Several Weeks Despite Stably Low Levels of LH

[3] = progressive MS patient, by 6 weeks

## CC(=O)N[C@H](Cc1ccc2ccccc2c1)C(=O)N[C@H](Cc1ccc(Cl)cc1)C(=O)N[C@H](Cc1cccnc1)C(=O)N[C@@H](CO)C(=O)N[C@@H](Cc1ccc(NC(=O)[C@@H]2CC(=O)NC(=O)N2)cc1)C(=O)N[C@H](Cc1ccc(NC(N)=O)cc1)C(=O)N[C@@H](CC(C)C)C(=O)N[C@@H](CCCCNC(C)C)C(=O)N1CCC[C@H]1C(=O)N[C@H](C)C(N)=O [degarelix] (Ac-[d2Nal][dPhe(4-Cl)][d3Pal]S[Phe(4-NH2)](Dihydroorotyl(S))[dPhe(4-NHCONH2)]L[Lys(iPr)]P[dA]-NH2)
[1]; MS patient, 29.4.15, after fampridine discontinued 05.04.15, from 11.9
  Timed walk test: 14.0 s
[1]; progressive MS patient, 6 weeks, stable vs baseline
  Expanded Disability Status Scale (EDSS): 6.5
[1]; [3]
  MFIS-5 reduction: 40%
  MSIS-29 score reduction: 11
  MSWS-12 improvement: 12%
[1]; progressive MS patient, by 6 weeks, baseline 20
  MFIS-5 score: 12
[1]; progressive MS patient, by 6 weeks, baseline 60
  MSWS-12 score: 53
[1]; progressive MS patient, by 6 weeks, baseline 121
  MSIS-29 score: 110
[1]; progressive MS patient, by 6 weeks, stable fampridine, baseline 16.7
  Timed 25 Foot Walk (T25FW): 15.2 s
[1]; progressive MS patient, from around 4 weeks, further by 6 weeks
  General function (patient reported): general improvement
[2]; Patient 1, by 24 wks, baseline 6.4, * normalized
  HbA1c (4.3-6.1), final: 6.4, 6.1*
[2]; Patient 1, by 24 wks, baseline 7
  Rheumatoid factor (<14), final: 7, 9
[2]; Patient 1, by 24 wks, baseline 22
  LH, final: 22, <0.
[2]; Patient 1, by 24 wks, baseline 38
  FSH, final: 38, 1
[2]; Patient 1, by 24 wks, baseline 46, * normalized
  ESR (erythrocyte sedimentation rate), final: 46, 24 *
[2]; Patient 1, by 24 wks, baseline 63
  CRP (<5), final: 63, 16
[2]; Patient 1, by 24 wks, baseline 151/90, * normalized
  Blood Pressure, final: 151/90, 120/71 *
[2]; Patient 1, by 24 wks, baseline NEG
  CCP antibody (<10), final: NEG, NEG
[2]; Patient 2, by 15 wks, baseline 5.3
  HbA1c (4.3-6.1), final: 5.3, 5.3
[2]; Patient 2, by 15 wks, baseline 36
  LH, final: 36, <0.3
[2]; Patient 2, by 15 wks, baseline 44
  CRP (<5), final: 44, 23
[2]; Patient 2, by 15 wks, baseline 51
  Rheumatoid factor (<14), final: 51, 38
[2]; Patient 2, by 15 wks, baseline 51, * normalized
  ESR (erythrocyte sedimentation rate), final: 51, 16*
[2]; Patient 2, by 15 wks, baseline 72
  FSH, final: 72, 0.4
[2]; Patient 2, by 15 wks, baseline 101
  CCP antibody (<10), final: 101, 70
[2]; Patient 2, by 15 wks, baseline 118/82
  Blood Pressure, final: 118/82, 126/80
[2]; Patient 3, 4 wks, baseline 2
  LH: <0.3
[2]; Patient 3, 4 wks, baseline 46
  ESR: 41
[2]; Patient 3, 8 wks, baseline 2
  LH: <0.3
[2]; Patient 3, 8 wks, baseline 46
  ESR: 36
[2]; Patient 3, 12 wks, baseline 2
  LH: <0.3
[2]; Patient 3, 12 wks, baseline 46
  ESR: 20
[2]; Patient 3, by 12 wks, baseline 2
  LH, final: 2, >0.3
[2]; Patient 3, by 12 wks, baseline 5.1
  HbA1c (4.3-6.1), final: 5.1, 5.4
[2]; Patient 3, by 12 wks, baseline 6
  FSH, final: 6, 1
[2]; Patient 3, by 12 wks, baseline 33
  CRP (<5), final: 33, 19
[2]; Patient 3, by 12 wks, baseline 46, * normalized
  ESR (erythrocyte sedimentation rate), final: 46, 20 *
[2]; Patient 3, by 12 wks, baseline 102
  CCP antibody (<10), final: 102, 101
[2]; Patient 3, by 12 wks, baseline 110/68
  Blood Pressure, final: 110/68; 110/66
[2]; Patient 3, by 12 wks, baseline 178
  Rheumatoid factor (<14), final: 178, 163
[2]; Patient 4, 3½ wks, baseline 8
  LH: <0.3
[2]; Patient 4, 3½ wks, baseline 78
  ESR: 68
[2]; Patient 4, 9 wks, baseline 8
  LH: <0.3
[2]; Patient 4, 9 wks, baseline 78
  ESR: 36
[2]; Patient 4, by 9 wks, baseline 6.9
  HbA1c (4.3-6.1), final: 6.9, 6.4
[2]; Patient 4, by 9 wks, baseline 8
  LH, final: 8, <0.3
[2]; Patient 4, by 9 wks, baseline 15, * normalized
  FSH, final: 15, 0.7*
[2]; Patient 4, by 9 wks, baseline 78
  ESR (erythrocyte sedimentation rate), final: 78, 36
[2]; Patient 4, by 9 wks, baseline 130/80
  Blood Pressure, final: 130/80; 120/78
[2]; Patient 4, by 9 wks, baseline 142
  CRP (<5), final: 142, 56
[2]; Patient 4, by 9 wks, baseline >200, above limit
  Rheumatoid factor (<14), final: >200, >200
[2]; Patient 4, by 9 wks, baseline >340, above limit
  CCP antibody (<10), final: >340, >340
[2]; Patient 5, by 7 wks, baseline 5.1
  HbA1c (4.3-6.1), final: 5.1, 5.5
[2]; Patient 5, by 7 wks, baseline 28
  ESR (erythrocyte sedimentation rate), final: 28, 8
[2]; Patient 5, by 7 wks, baseline 44
  LH, final: 44, <0.3
[2]; Patient 5, by 7 wks, baseline 64
  FSH, final: 64, <0.1
[2]; Patient 5, by 7 wks, baseline 134/79
  Blood Pressure, final: 134/79; 124/80
[2]; Patient 5, by 7 wks, baseline 167
  Rheumatoid factor (<14), final: 167, >200
[2]; Patient 5, by 7 wks, baseline 257
  CCP antibody (<10), final: 257, 235
[2]; Patient 5, by 7 wks, baseline <5
  CRP (<5), final: <5, 6
[2]; Patient 6, by 3 ½ wks, baseline 5.5
  HbA1c (4.3-6.1), final: 5.5, 5.4
[2]; Patient 6, by 3 ½ wks, baseline 8
  Rheumatoid factor (<14), final: 8, 8
[2]; Patient 6, by 3 ½ wks, baseline 22, * normalized
  CRP (<5), final: 22, <5*
[2]; Patient 6, by 3 ½ wks, baseline 30
  LH, final: 30, <0.3
[2]; Patient 6, by 3 ½ wks, baseline 37, * normalized
  ESR (erythrocyte sedimentation rate), final: 37, 24*
[2]; Patient 6, by 3 ½ wks, baseline 79
  FSH, final: 79, 0.6
[2]; Patient 6, by 3 ½ wks, baseline 90/60
  Blood Pressure, final: 90/60; 100/64
[2]; Patient 6, by 3 ½ wks, baseline NEG
  CCP antibody (<10), final: NEG, NEG
